# Laboratory results reported in patent publication US8541579B2, “Substituted diketopiperazines as oxytocin antagonists” (Glaxo Group Limited, priority 2001, dated 2013).
# System: rats
# Experiment: Administration to rats p.o. for 4 days, toxicological effects
# Assay type: in vivo
# Details: doses of up to 300 mg/kg p.o for 4 days
# Source text: The compounds of the invention are essentially non toxic at therapeutically active doses.
structure (smiles),measurement,value
"CC(C)C[C@@H]1C(=O)N[C@H](C2Cc3ccccc3C2)C(=O)N1[C@@H](C(=O)N(C)C)c1ccc(F)cc1F [Example 10, (2R)-2-(2,4-difluorophenyl)-2-[(3R,6R)-3-(2,3-dihydro-1H-inden-2-yl)-6-isobutyl-2,5-dioxopiperazin-1-yl]-N,N-dimethylethanamide]",adverse toxicological effects,no adverse toxicological effects were observed
